35 compounds from a polymer gas permeability compilation can be followed below.

Structures are written as SMILES.

With `*CC(*)(Cl)Cl` (repeat unit), the CO2 permeability amounted to 0.029 Barrer, the N2 permeability worked out at 0.000939 Barrer and the O2 permeability is 0.00519 Barrer.
Consider `*c1ccc(-c2ccc(N3C(=O)c4ccc(C(c5ccc6c(c5)C(=O)N(*)C6=O)(C(F)(F)F)C(F)(F)F)cc4C3=O)c(N)c2)cc1N` (repeat unit), for which the CO2 permeability turned out to be 138 Barrer, the N2 permeability was 5.2 Barrer and the O2 permeability came to 34 Barrer.
With `*/N=C1/c2cc(C(c3ccc4c(c3)C(=O)n3c-4nc4c(Oc5ccc(*)c(*)c5)cccc43)(C(F)(F)F)C(F)(F)F)ccc2C(=O)N1*` (repeat unit), the CH4 permeability came out at 0.54 Barrer, the CO2 permeability was determined as 27.6 Barrer, the N2 permeability was found to be 1.22 Barrer and the O2 permeability amounted to 7.9 Barrer.
The like results for `*Oc1ccc(C(=O)c2ccccc2-c2ccccc2C(=O)c2ccc(Oc3ccc(C(c4ccc(*)cc4)(C(F)(F)F)C(F)(F)F)cc3)cc2)cc1` (repeat unit) were, in that order, 0.087 Barrer, 3.12 Barrer, 0.146 Barrer and 0.99 Barrer.
Turning to `*NCCCCCC(*)=O` (repeat unit), the CO2 permeability was determined as 0.165 Barrer and the O2 permeability came to 0.036 Barrer.
In the case of `*CC(*)(C)C#N` (repeat unit), the CO2 permeability amounted to 0.0032 Barrer and the O2 permeability turned out to be 0.0012 Barrer.
In the case of `*CC(*)c1ccc(F)cc1` (repeat unit), the CH4 permeability was 1.06 Barrer, the CO2 permeability turned out to be 17.2 Barrer, the N2 permeability was found to be 0.83 Barrer and the O2 permeability amounted to 4.4 Barrer.
On to `*CCSS*` (repeat unit), for which the CO2 permeability turned out to be 3.14 Barrer, the H2 permeability turned out to be 1.57 Barrer and the O2 permeability was found to be 0.288 Barrer.
`*c1ccc(Oc2ccc(N3C(=O)c4cc5c(cc4C3=O)S(=O)(=O)c3cc4c(cc3S5(=O)=O)C(=O)N(*)C4=O)cc2)cc1` (repeat unit) showed a CH4 permeability of 0.18 Barrer, a CO2 permeability of 9.6 Barrer, an H2 permeability of 19 Barrer and an N2 permeability of 0.27 Barrer. This compound yielded an O2 permeability of 1.6 Barrer.
The compound `*c1ccc2c(-c3c(O)ccc4cc(N5C(=O)c6ccc(Oc7ccc8c(c7)C(=O)N(*)C8=O)cc6C5=O)ccc34)c(O)ccc2c1` (repeat unit) yielded a CH4 permeability of 0.03 Barrer, a CO2 permeability of 1.87 Barrer, an H2 permeability of 2.72 Barrer and an N2 permeability of 0.05 Barrer. In addition, the O2 permeability worked out at 0.35 Barrer.
`*c1cccc(-c2nc3cc(-c4ccc5[nH]c(*)nc5c4)ccc3[nH]2)c1` (repeat unit) displayed a CH4 permeability of 0.0018 Barrer, a CO2 permeability of 0.16 Barrer, an H2 permeability of 0.615 Barrer and an N2 permeability of 0.0048 Barrer. This compound also displayed an O2 permeability of 0.015 Barrer.
The compound `*c1ccc2c(c1C)N1Cc3ccc(N4C(=O)c5ccc(C(c6ccc7c(c6)C(=O)N(*)C7=O)(C(F)(F)F)C(F)(F)F)cc5C4=O)c(C)c3N(C2)C1` (repeat unit) came in with a CH4 permeability of 6.3 Barrer, a CO2 permeability of 190 Barrer, an H2 permeability of 322 Barrer and an N2 permeability of 10 Barrer. The compound further registered an O2 permeability of 50 Barrer.
Regarding `*Oc1ccc(S(=O)(=O)c2ccc(Oc3ccc(C(c4ccc(*)cc4)(C(F)(F)F)C(F)(F)F)cc3)cc2)cc1` (repeat unit), the CH4 permeability was 0.345 Barrer, the CO2 permeability was 8.45 Barrer, the H2 permeability was determined as 15.1 Barrer and the N2 permeability worked out at 0.431 Barrer. This compound also registered an O2 permeability of 2.33 Barrer.
Turning to `*CC(C)C(=O)OCCOC(=O)C(C)C*` (repeat unit), the CH4 permeability came to 4.8 Barrer, the CO2 permeability was found to be 95 Barrer, the H2 permeability came to 15 Barrer and the N2 permeability worked out at 1.6 Barrer. The compound also showed an O2 permeability of 4.7 Barrer.
In turn, `*c1ccc2c(c1)Oc1ccc(C3(c4ccc5c(c4)Oc4ccc(*)cc4O5)c4ccccc4-c4ccccc43)cc1O2` (repeat unit) showed a CH4 permeability of 0.56 Barrer, a CO2 permeability of 26.6 Barrer, an N2 permeability of 1.04 Barrer and an O2 permeability of 5.68 Barrer.
For the compound `*C(=C(*)c1cccc(O)c1)c1ccc(C(C)(C)C)cc1` (repeat unit), the CH4 permeability worked out at 490 Barrer, the CO2 permeability was found to be 3000 Barrer, the H2 permeability worked out at 1700 Barrer and the N2 permeability turned out to be 210 Barrer. Besides, the O2 permeability came to 580 Barrer.
As for `*c1cccc(C(c2cccc(-c3nnc(*)n3-c3ccc(O)cc3)c2)(C(F)(F)F)C(F)(F)F)c1` (repeat unit), the CH4 permeability was found to be 1.41 Barrer, the CO2 permeability was found to be 66.3 Barrer, the N2 permeability was found to be 2.37 Barrer and the O2 permeability was found to be 12.5 Barrer.
Take `*c1ccc(-c2ccc(Oc3ccc4c(c3)C3(CC4(C)C)CC(C)(C)c4ccc(Oc5ccc(-c6ccc(N7C(=O)c8ccc(Oc9ccc(C(C)(C)c%10ccc(Oc%11ccc%12c(c%11)C(=O)N(*)C%12=O)cc%10)cc9)cc8C7=O)cc6)cc5C(F)(F)F)cc43)c(C(F)(F)F)c2)cc1` (repeat unit): the CH4 permeability stood at 0.35 Barrer, the CO2 permeability came to 23.9 Barrer, the N2 permeability worked out at 1.02 Barrer and the O2 permeability was 9.92 Barrer.
The like results for `*c1cccc(-c2nnc(*)n2-c2ccccc2)c1` (repeat unit) were, in that order, 0.0491 Barrer, 2.7 Barrer, 0.09 Barrer and 0.52 Barrer.
The like results for `*c1ccc(Cc2ccc(N3C(=O)c4ccc(-c5ccc6c(c5)C(=O)N(*)C6=O)cc4C3=O)c(Cl)c2)cc1Cl` (repeat unit) were, in that order, 0.0164 Barrer, 0.978 Barrer, 0.0307 Barrer and 0.26 Barrer.
Compound `*Oc1ccc(C(c2ccc(Oc3c(F)c(F)c(COC(C4CCCC(C(OCc5c(F)c(F)c(*)c(F)c5F)(C(F)(F)F)C(F)(F)F)C4)(C(F)(F)F)C(F)(F)F)c(F)c3F)cc2)(C(F)(F)F)C(F)(F)F)cc1` (repeat unit) returned a CH4 permeability of 0.55 Barrer, a CO2 permeability of 12 Barrer, an H2 permeability of 28 Barrer and an N2 permeability of 0.9 Barrer. Further, the O2 permeability was determined as 3.8 Barrer.
Consider `*OC1OC(CO[N+](=O)[O-])C(OC2OC(O[N+](=O)[O-])C(O*)C(O)C2O[N+](=O)[O-])C(O)C1O[N+](=O)[O-]` (repeat unit), for which the H2 permeability worked out at 2 Barrer, the N2 permeability is 0.12 Barrer and the O2 permeability worked out at 0.6 Barrer.
Take `*c1ccc(C(c2ccc(-c3nc4cc(C(c5ccc6oc(*)nc6c5)(C(F)(F)F)C(F)(F)F)ccc4o3)cc2)(C(F)(F)F)C(F)(F)F)cc1` (repeat unit): the CH4 permeability was 176 Barrer, the CO2 permeability amounted to 4540 Barrer, the H2 permeability was determined as 3900 Barrer and the N2 permeability was 300 Barrer. In addition, the O2 permeability was 1150 Barrer.
In turn, `*c1c(C)c(C)c(N2C(=O)c3ccc(Oc4c(C)cccc4Oc4ccc5c(c4)C(=O)N(*)C5=O)cc3C2=O)c(C)c1C` (repeat unit) had a CH4 permeability of 0.7 Barrer, a CO2 permeability of 27 Barrer, an H2 permeability of 51 Barrer and an N2 permeability of 0.83 Barrer. The compound further returned an O2 permeability of 4.8 Barrer.
For `*Oc1ccc(S(=O)(=O)c2ccc(Oc3ccc(C(C)(C)c4ccc(*)c(C(OC)(C(F)(F)F)C(F)(F)F)c4)cc3C(OC)(C(F)(F)F)C(F)(F)F)cc2)cc1` (repeat unit), the CO2 permeability is 7.7 Barrer, the N2 permeability was 0.26 Barrer and the O2 permeability worked out at 2 Barrer.
For `*CC(*)(C)C(=O)OCCOCCOCC` (repeat unit), the CH4 permeability was found to be 11.4 Barrer, the CO2 permeability was determined as 133 Barrer, the N2 permeability is 3.6 Barrer and the O2 permeability was determined as 11.4 Barrer.
Consider `*c1ccccc1Oc1ccc2ccccc2c1-c1c(Oc2ccccc2N2C(=O)c3ccc(C(c4ccc5c(c4)C(=O)N(*)C5=O)(C(F)(F)F)C(F)(F)F)cc3C2=O)ccc2ccccc12` (repeat unit), for which the CH4 permeability worked out at 0.07 Barrer, the CO2 permeability turned out to be 4.88 Barrer, the H2 permeability amounted to 6.86 Barrer and the N2 permeability was determined as 0.13 Barrer. The compound further showed an O2 permeability of 0.99 Barrer.
The compound `*C(C)=C(*)CCC(C)C` (repeat unit) returned a CH4 permeability of 112 Barrer, a CO2 permeability of 390 Barrer, an H2 permeability of 370 Barrer and an N2 permeability of 51 Barrer. Besides, the O2 permeability is 130 Barrer.
With `*CC(*)OC(C)=O` (repeat unit), the H2 permeability is 9.19 Barrer and the O2 permeability stood at 0.488 Barrer.
In turn, `*c1c(C)cc(-c2cc(C)c(N3C(=O)c4cc5c(cc4C3=O)C3(C)c4ccccc4C5(C)c4cc5c(cc43)C(=O)N(*)C5=O)c3ccccc23)c2ccccc12` (repeat unit) returned a CH4 permeability of 187 Barrer, a CO2 permeability of 3350 Barrer, an H2 permeability of 2740 Barrer and an N2 permeability of 158 Barrer. Besides, the O2 permeability worked out at 696 Barrer.
For the compound `*c1ccc(Oc2ccc(S(=O)(=O)c3ccc(Oc4ccc(S(*)(=O)=O)cc4)cc3)cc2)cc1` (repeat unit), the CH4 permeability came out at 0.13 Barrer, the CO2 permeability was determined as 2.88 Barrer, the H2 permeability was determined as 8.35 Barrer and the N2 permeability amounted to 0.13 Barrer. The O2 permeability is 0.83 Barrer.
`*=CC1CC(C=*)C2C(=O)N(C3CCCC3)C(=O)C12` (repeat unit) came in with a CH4 permeability of 0.54 Barrer, a CO2 permeability of 8.8 Barrer, an N2 permeability of 0.45 Barrer and an O2 permeability of 1.95 Barrer.
The like results for `*c1ccc(Oc2ccc(-c3ccc(-c4ccc(Oc5ccc(N6C(=O)c7ccc(C(c8ccc9c(c8)C(=O)N(*)C9=O)(C(F)(F)F)C(F)(F)F)cc7C6=O)cc5)c(C(F)(F)F)c4)cc3)cc2C(F)(F)F)cc1` (repeat unit) were, in that order, 1.19 Barrer, 33.1 Barrer, 2.87 Barrer and 15.2 Barrer.
The compound `*OCC(*)CCl` (repeat unit) showed a CH4 permeability of 0.657 Barrer, a CO2 permeability of 8 Barrer and an N2 permeability of 0.24 Barrer.
In turn, `*c1ccc(Cc2ccc(N3C(=O)c4ccc(C(c5ccc6c(c5)C(=O)N(*)C6=O)(C(F)(F)F)C(F)(F)F)cc4C3=O)c(Cl)c2)cc1Cl` (repeat unit) came in with a CH4 permeability of 0.121 Barrer, a CO2 permeability of 6.78 Barrer, an N2 permeability of 0.269 Barrer and an O2 permeability of 1.81 Barrer.
